The text below walks through data of patent US9567302B2, “Carbamate compounds and of making and using same” (Abide Therapeutics, Inc., priority 2012, dated 2017).

What all share (type): biochemical
Set-up in all cases: from tissue

Assay [1] has as its target T1, ABHD6 (Mus musculus, UniProt Q8R2Y0).
T1 sequence (Q8R2Y0 1-336): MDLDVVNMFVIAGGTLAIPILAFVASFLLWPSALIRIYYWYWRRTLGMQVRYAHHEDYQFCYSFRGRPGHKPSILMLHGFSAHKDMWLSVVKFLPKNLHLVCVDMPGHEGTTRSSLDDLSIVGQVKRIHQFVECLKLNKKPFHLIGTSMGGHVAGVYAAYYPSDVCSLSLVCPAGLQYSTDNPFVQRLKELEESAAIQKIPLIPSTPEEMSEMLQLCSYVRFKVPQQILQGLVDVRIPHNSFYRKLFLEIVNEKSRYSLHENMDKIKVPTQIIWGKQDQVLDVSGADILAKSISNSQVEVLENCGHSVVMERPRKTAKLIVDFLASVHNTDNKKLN
The assay is described as follows: In vitro competitive ABPP, % inhibition at fixed concentration, ABHD6. The essentials:
(§1)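 Mouse brain membrane proteome or cell lysate at 1.0 mg/ml was preincubated with inhibitor for 30 min at 37° C, then labelled with FP-Rh for another 30 min. After SDS-PAGE, activity was quantified from the fluorescent intensity of the MAGL, ABHD6 and FAAH bands.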

For assay [2], the target named is T2, MAGL (Mus musculus, UniProt O35678).
T2 sequence (O35678 1-303): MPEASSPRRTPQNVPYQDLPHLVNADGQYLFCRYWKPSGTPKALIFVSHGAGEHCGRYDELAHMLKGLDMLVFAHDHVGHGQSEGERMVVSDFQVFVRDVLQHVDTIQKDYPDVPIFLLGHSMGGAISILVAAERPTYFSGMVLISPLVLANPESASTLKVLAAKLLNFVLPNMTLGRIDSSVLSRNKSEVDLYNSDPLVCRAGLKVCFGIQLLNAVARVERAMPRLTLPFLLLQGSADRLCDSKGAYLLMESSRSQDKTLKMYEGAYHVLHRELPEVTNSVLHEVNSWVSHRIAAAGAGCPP
In words: In vitro competitive ABPP, % inhibition at fixed concentration, MAGL. The method, boiled down:
as §1

Assay [3] concerns the target T3, FAAH (Mus musculus, UniProt O08914).
T3 sequence (O08914 1-579): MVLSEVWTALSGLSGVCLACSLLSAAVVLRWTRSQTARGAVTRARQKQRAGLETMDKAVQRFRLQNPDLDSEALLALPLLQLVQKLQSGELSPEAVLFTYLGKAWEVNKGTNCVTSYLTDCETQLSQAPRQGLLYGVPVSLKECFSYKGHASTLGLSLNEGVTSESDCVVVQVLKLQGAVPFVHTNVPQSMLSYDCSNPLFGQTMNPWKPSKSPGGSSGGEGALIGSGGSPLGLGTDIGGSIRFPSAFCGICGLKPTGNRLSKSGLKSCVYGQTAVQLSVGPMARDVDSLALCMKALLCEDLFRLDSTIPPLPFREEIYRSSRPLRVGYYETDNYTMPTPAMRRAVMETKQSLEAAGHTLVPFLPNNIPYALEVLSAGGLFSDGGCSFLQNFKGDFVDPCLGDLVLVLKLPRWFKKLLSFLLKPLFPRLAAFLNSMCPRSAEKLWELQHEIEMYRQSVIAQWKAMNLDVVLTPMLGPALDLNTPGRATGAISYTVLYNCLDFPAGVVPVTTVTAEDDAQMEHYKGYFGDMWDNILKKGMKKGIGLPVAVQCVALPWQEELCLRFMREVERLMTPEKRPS
In words: In vitro competitive ABPP, % inhibition at fixed concentration, FAAH. The essentials:
as §1

As usually defined, the inhibition is the change of the read-out against control, counted positive when it falls. Read a low inhibition as little suppression.

Molecules are shown by their SMILES.

In the case of `Cc1nc(-c2cccc(F)c2)ccc1CN1CCN(C(=O)ON2C(=O)CCC2=O)CC1` [Example 185, 2,5-Dioxopyrrolidin-1-yl 4-{[6-(3-fluorophenyl)-2-methylpyridin-3-yl]methyl}piperazine-1-carboxylate], the inhibition at 1 µM in assay [1] is > 75%; in assay [2] it was > 75%; in assay [3], < 25%.

`CC(C)c1cc(N2CCCC2)ccc1CN1CCN(C(=O)ON2C(=O)CCC2=O)CC1` [Example 186, 2,5-Dioxopyrrolidin-1-yl 4-{[2-(propan-2-yl)-4-(pyrrolidin-1-yl)phenyl]methyl}piperazine-1-carboxylate]: the inhibition at 1 µM was 25 to 75% in assay [1], 25 to 75% in assay [2] and < 25% in assay [3].

Take `CC(C)c1cc(N2CCOCC2)ccc1CN1CCN(C(=O)ON2C(=O)CCC2=O)CC1` [Example 187, 2,5-Dioxopyrrolidin-1-yl 4-{[4-(morpholin-4-yl)-2-(propan-2-yl)phenyl]methyl}piperazine-1-carboxylate]: the results for the inhibition at 1 µM in assay [1], in assay [2] and in assay [3] were 25 to 75%, 25 to 75% and < 25%, respectively.

On to `O=C(ON1C(=O)CCC1=O)N1CCN(Cc2cccc(Cl)c2C(=O)N2CCCC2)CC1` [Example 190, 2,5-Dioxopyrrolidin-1-yl 4-{[3-chloro-2-(pyrrolidine-1-carbonyl)phenyl]methyl}piperazine-1-carboxylate], for which the inhibition at 1 µM in assay [1] is < 25%; in assay [2], 25 to 75%; in assay [3] it was < 25%.

With `O=C(ON1C(=O)CCC1=O)N1CCN(Cc2ccc(C(=O)N3CCOCC3)cc2Cl)CC1` [Example 192, 2,5-dioxopyrrolidin-1-yl 4-{[2-chloro-4-(morpholine-4-carbonyl)phenyl]methyl}piperazine-1-carboxylate], the inhibition at 1 µM in assay [1] is 25 to 75%; in assay [2], 25 to 75%; in assay [3] it was < 25%.

On to `O=C(ON1C(=O)CCC1=O)N1CCN(Cc2ccc(C(=O)N3CCCC3)cc2Cl)CC1` [Example 193, 2,5-Dioxopyrrolidin-1-yl 4-{[2-chloro-4-(pyrrolidine-1-carbonyl)phenyl]methyl}piperazine-1-carboxylate], for which the inhibition at 1 µM in assay [1] is 25 to 75%; in assay [2], 25 to 75%; in assay [3], < 25%.

In the case of `O=C(ON1C(=O)CCC1=O)N1CCN(Cc2ccc(C(=O)N3CCC3)cc2Cl)CC1` [Example 194, 2,5-Dioxopyrrolidin-1-yl 4-{[4-(azetidine-1-carbonyl)-2-chlorophenyl]methyl}piperazine-1-carboxylate], the inhibition at 1 µM is 25 to 75% in assay [1], 25 to 75% in assay [2] and < 25% in assay [3].

On to `O=C(ON1C(=O)CCC1=O)N1CCN(Cc2ccc(Cl)cc2C(=O)N2CCOCC2)CC1` [Example 195, 2,5-Dioxopyrrolidin-1-yl 4-{[4-chloro-2-(morpholine-4-carbonyl)phenyl]methyl}piperazine-1-carboxylate], for which the inhibition at 1 µM in assay [1], in assay [2] and in assay [3] was < 25% in each case.

On to `O=C(ON1C(=O)CCC1=O)N1CCN(Cc2ccc(Cl)cc2C(=O)N2CCCC2)CC1` [Example 196, 2,5-Dioxopyrrolidin-1-yl 4-{[4-chloro-2-(pyrrolidine-1-carbonyl)phenyl]methyl}piperazine-1-carboxylate], for which the results for the inhibition at 1 µM in assay [1], in assay [2] and in assay [3] were < 25%, 25 to 75% and < 25%, respectively.

As to `O=C(ON1C(=O)CCC1=O)N1CCN(Cc2ccc(Cl)cc2C(=O)N2CCC2)CC1` [Example 197, 2,5-Dioxopyrrolidin-1-yl 4-{[2-(azetidine-1-carbonyl)-4-chlorophenyl]methyl}piperazine-1-carboxylate], the inhibition at 1 µM in assay [1], in assay [2] and in assay [3] was < 25% in each case.

With `O=C(ON1C(=O)CCC1=O)N1CCN(Cc2cccc(Cl)c2C(=O)N2CCOCC2)CC1` [Example 198, 2,5-Dioxopyrrolidin-1-yl 4-{[3-chloro-2-(morpholine-4-carbonyl)phenyl]methyl}piperazine-1-carboxylate], the inhibition at 1 µM in assay [1], in assay [2] and in assay [3] was < 25% each time.

Regarding `O=C(ON1C(=O)CCC1=O)N1CCN(Cc2cc(Cl)ccc2C(=O)N2CCOCC2)CC1` [Example 199, 2,5-Dioxopyrrolidin-1-yl 4-{[5-chloro-2-(morpholine-4-carbonyl)phenyl]methyl}piperazine-1-carboxylate], the inhibition at 1 µM in assay [1] was 25 to 75%; in assay [2], < 25%; in assay [3], < 25%.

Take `O=C(ON1C(=O)CCC1=O)N1CCN(Cc2cc(Cl)ccc2C(=O)N2CCCC2)CC1` [Example 200, 2,5-Dioxopyrrolidin-1-yl 4-{[5-chloro-2-(pyrrolidine-1-carbonyl)phenyl]methyl}piperazine-1-carboxylate]: the inhibition at 1 µM in assay [1], in assay [2] and in assay [3] was < 25% each time.

Take `Cc1ccc(C(=O)N2CCOCC2)c(CN2CCN(C(=O)ON3C(=O)CCC3=O)CC2)c1` [Example 201, 2,5-Dioxopyrrolidin-1-yl 4-{[5-methyl-2-(morpholine-4-carbonyl)phenyl]methyl}piperazine-1-carboxylate]: the inhibition at 1 µM in assay [1], in assay [2] and in assay [3] was < 25% in each case.

Regarding `Cc1ccc(C(=O)N2CCCC2)c(CN2CCN(C(=O)ON3C(=O)CCC3=O)CC2)c1` [Example 202, 2,5-Dioxopyrrolidin-1-yl 4-{[5-methyl-2-(pyrrolidine-1-carbonyl)phenyl]methyl}piperazine-1-carboxylate], the inhibition at 1 µM in assay [1], in assay [2] and in assay [3] was < 25% each time.

Take `O=C(ON1C(=O)CCC1=O)N1CCN(Cc2cc(C(F)(F)F)ccc2C(=O)N2CCOCC2)CC1` [Example 203, 2,5-Dioxopyrrolidin-1-yl 4-{[2-(morpholine-4-carbonyl)-5-(trifluoromethyl)phenyl]methyl}piperazine-1-carboxylate]: the inhibition at 1 µM in assay [1], in assay [2] and in assay [3] was < 25% in each case.

Take `O=C(ON1C(=O)CCC1=O)N1CCN(Cc2cc(C(F)(F)F)ccc2C(=O)N2CCCC2)CC1` [Example 204, 2,5-Dioxopyrrolidin-1-yl 4-{[2-(pyrrolidine-1-carbonyl)-5-(trifluoromethyl)phenyl]methyl}piperazine-1-carboxylate]: the inhibition at 1 µM in assay [1], in assay [2] and in assay [3] was < 25% throughout.

Turning to `Cc1c(CN2CCN(C(=O)ON3C(=O)CCC3=O)CC2)cccc1C(=O)N1CCOCC1` [Example 205, 2,5-Dioxopyrrolidin-1-yl 4-{[2-methyl-3-(morpholine-4-carbonyl)phenyl]methyl}piperazine-1-carboxylate], the inhibition at 1 µM in assay [1] was > 75%; in assay [2], < 25%; in assay [3] it was < 25%.
